Assay results reported in patent US4103008A, “7[2(2,3 Dioxopiperazin-1-yl-carbonylamino)substituted 2 phenylacetamido]-3-2'-thiadiazolyl cephalosporanic acid derivatives” (priority 1976, dated 1978).
Values after ≈ are worked out from the molar mass of the structure shown. Read-outs that look alike come from different tables or passages of the source.

Experiments:
[1] = system: Pseudomonas aeruginosa C73-2; experiment: In vitro antibacterial activity (MIC); type: cell-based; settings: C732
[2] = system: Escherichia coli C 73-4; experiment: In vitro antibacterial activity (MIC); type: cell-based; settings: C734
[3] = system: Serratia strain No. 2; experiment: In vitro antibacterial activity (MIC); type: cell-based
[4] = system: Pseudomonas strain C73-63; experiment: In vitro antibacterial activity (MIC); type: cell-based; settings: C7363
[5] = system: Proteus morganii kono; experiment: In vitro antibacterial activity (MIC); type: cell-based; settings: Morganella morganii
[6] = system: Streptococcus faecalis ATCC 8043; experiment: In vitro antibacterial activity (MIC); type: cell-based; settings: Enterococcus faecalis, ATCC8043
[7] = system: Vibrio parahaemolyticus K - 5; experiment: In vitro antibacterial activity (MIC); type: cell-based; settings: K5
[8] = system: Serratia strain No. 1; experiment: In vitro antibacterial activity (MIC); type: cell-based
[9] = Serum concentration and accumulative urinary excretion in rabbit; settings: in vivo, im
Method: (§1) Given below are the test results of in vitro antibacterial activity studies, serum concentrations and accumulative urinary excretions in rabbits and the protecting effects in mice, of some representative compounds of the invention.
(§2) The compounds used in the tests are shown in the following Table 1, but all of these compounds are in the form of the sodium salt.
Each of the test compounds (20 mg/kg) was intramuscularly administered to one group of 3 rabbits, and the amounts of antibiotics were measured by a conventional method, using Sarcina lutea.

[10] = system: Pseudomonas strain C73-83; experiment: In vitro antibacterial activity (MIC); type: cell-based; settings: C7383; Pseudomonas strain C73-83; in vitro; sodium salts; read-out: MIC
Excerpt: as §1, §2

[11] = system: Salmonella strain C 73-30; experiment: In vitro antibacterial activity (MIC); type: cell-based; settings: C7330; Salmonella strain C 73-30; in vitro; sodium salts; read-out: MIC
Excerpt: as §1, §2

[12] = system: Salmonella strain C73-1; experiment: In vitro antibacterial activity (MIC); type: cell-based; settings: C731; Salmonella strain C73-1; in vitro; sodium salts; read-out: MIC
Excerpt: as §1, §2

[13] = system: Shigella dysenteriae shigae; experiment: microbe, parasite or virus in culture; type: cell-based
[14] = system: Escherichia coli C 73-1; experiment: In vitro antibacterial activity (MIC); type: cell-based; settings: C731
[15] = system: Salmonella enteritidis No. 11; experiment: In vitro antibacterial activity (MIC); type: cell-based; settings: Salmonella enterica
[16] = system: Enterobacter strain C73-17; experiment: In vitro antibacterial activity (MIC); type: cell-based; settings: C7317
[17] = system: Klebsilla pneumoniae; experiment: In vitro antibacterial activity (MIC); type: cell-based
[18] = system: Proteus morganii C73-23; experiment: In vitro antibacterial activity (MIC); type: cell-based; settings: Morganella morganii, C7323
[19] = system: Pseudomonas aerugenosa E 2 strain; experiment: ED50 in Pseudomonas infection in mice; type: in vivo; settings: ICR-JCL mouse, male, 20g; P. aerugenosa E 2 3.6 × 10^4 intraperitoneal; compound intramuscular after 2 hrs.; ED50 after 7 days; sodium salts
Excerpt: as §1, §2
Pseudomonas aerugenosa E 2 strain (3.6 × 10^4) was intraperitonealy injected to each group of 10 of ICR-JCL mouse (male, 20g). After 2 hrs., each of the test compounds was intramuscularly administered to the infected mice and the ED50 values were measured after 7 days.

[20] = system: Staphylococcus aureus FDA 209NIH, P-J C-1; experiment: In vitro antibacterial activity (MIC); type: cell-based
[21] = system: Vibrio parahaemolyticus K - 3; experiment: In vitro antibacterial activity (MIC); type: cell-based; settings: K3
[22] = system: Bacillus substilis ATCC 6633; experiment: In vitro antibacterial activity (MIC); type: cell-based; settings: ATCC6633
[23] = Pseudomonas aeruginosa C-73-2, read-out: Mic value against Pseudomonas aeruginosa C-73-2
[24] = Escherichia coli C 73-4, in vitro, sodium salts, read-out: MIC
[25] = Serratia strain No. 2, in vitro, sodium salts, read-out: MIC
[26] = Pseudomonas aeruginosa C73-2, in vitro, sodium salts, read-out: MIC
[27] = Pseudomonas strain C73-63, in vitro, sodium salts, read-out: MIC
[28] = Proteus morganii kono, in vitro, sodium salts, read-out: MIC
[29] = Streptococcus faecalis ATCC 8043, in vitro, sodium salts, read-out: MIC
[30] = Vibrio parahaemolyticus K - 5, in vitro, sodium salts, read-out: MIC
[31] = Serratia strain No. 1, in vitro, sodium salts, read-out: MIC
[32] = Escherichia coli C 73-1, in vitro, sodium salts, read-out: MIC
[33] = Salmonella enteritidis No. 11, in vitro, sodium salts, read-out: MIC
[34] = Enterobacter strain C73-17, in vitro, sodium salts, read-out: MIC
[35] = Klebsilla pneumoniae, in vitro, sodium salts, read-out: MIC
[36] = Proteus morganii C73-23, in vitro, sodium salts, read-out: MIC
[37] = Staphylococcus aureus FDA 209NIH, P-J C-1, in vitro, sodium salts, read-out: MIC
[38] = Vibrio parahaemolyticus K - 3, in vitro, sodium salts, read-out: MIC
[39] = Bacillus substilis ATCC 6633, in vitro, sodium salts, read-out: MIC

Structure (SMILES) | MIC [1, 26] [µg/mL] | MIC [4, 27] [µg/mL] | MIC [5, 28] [µg/mL] | MIC [6, 29] [µg/mL] | MIC [7, 30] [µg/mL] | MIC [10] [µg/mL] | MIC [11] [µg/mL] | MIC [12] [µg/mL] | MIC [13] [µg/mL] | MIC [15, 33] [µg/mL] | MIC [16, 34] [µg/mL] | MIC [18, 36] [µg/mL] | MIC [20, 37] [µg/mL] | MIC [21, 38] [µg/mL] | MIC [22, 39] [µg/mL] | MIC ([2]; Escherichia coli) [µg/mL] | MIC ([3]; Serratia, NO.2) [µg/mL] | MIC ([8]; Serratia, NO.1) [µg/mL] | MIC [17] [µg/mL] | MIC ([14]; Escherichia coli) [µg/mL] | further results
CCN1CCN(C(=O)N[C@@H](C(=O)NC2C(=O)N3C(C(=O)O)=C(CSc4nnc(C)s4)CS[C@H]23)c2ccc(O)cc2)C(=O)C1=O (single isomer, unassigned) [Example 8, 7-[D(-)-α-(4-ethyl-2,3-dioxopiperazin-1-yl-carbonylamino)-p-hydroxyphenylacetamido]-3-(5-methyl-1,3,4-thiadiazol-2-yl-thiomethyl)-3-cephem-4-carboxylic acid] | – | – | – | – | – | – | – | – | – | – | – | – | – | – | – | – | – | – | – | – | MIC [1, 23]: 25 µg/mL (≈ 37.8 µM)
CCN1CCN(C(=O)N[C@@H](C(=O)NC2C(=O)N3C(C(=O)O)=C(CSc4nncs4)CS[C@H]23)c2ccc(OC(C)=O)cc2)C(=O)C1=O (single isomer, unassigned) [III, 7-[D(-)-α-(4-ethyl-2,3-dioxopiperazin-1-yl-carbonylamino)-p-acetoxyphenylacetamido]-3-(1,3,4-thiadiazol-2-yl-thiomethyl)-3-cephem-4-carboxylic acid] | 1.56 | 6.25 | 6.25 | 1.56 | 6.25 | 25 | 0.78 | 0.78 | 0.78 (≈ 1.13 µM) | 1.56 | 25 | 12.5 | 12.5 | 6.25 | 12.5 | – | – | – | – | – | MIC [2, 24]: 3.13 µg/mL; MIC [3, 25]: 1.56 µg/mL; MIC [8, 31]: 6.25 µg/mL; dose excreted at 6 h ([9]; 20 mg/kg): 48%; concentration at 0.5 h ([9]; 20 mg/kg intramuscular, after 30 mins., sodium salts, Sarcina lutea assay): 62 µg/mL; MIC [14, 32]: 3.13 µg/mL; MIC [17, 35]: 0.78 µg/mL; ED50 in Pseudomonas infection in mice [19]: 2.6 mg/mouse
CC1(C)S[C@@H]2[C@H](NC(=O)C(C(=O)O)c3ccccc3)C(=O)N2[C@H]1C(=O)O (stereo partly shown) [CB-PC, sodium carbenicillin, reference compound] | 25 | – | 0.39 | – | > 100 | > 100 | 6.25 | 6.25 | 0.78 | 0.39 | 25 | 1.56 | 0.2 | > 100 | < 0.05 | 6.25 | 3.13 | 3.13 | 6.25 | – | MIC ([4]; Pseudomonas): 12.5 µg/mL; MIC [6]: 6.25 µg/mL; MIC [14, 32]: > 100 µg/mL; ED50 in Pseudomonas infection in mice [19]: 8.1 mg/mouse
CCN1CCN(C(=O)N[C@@H](C(=O)NC2C(=O)N3C(C(=O)O)=C(CSc4nnc(C)s4)CSC23)c2ccc(O)c(Cl)c2)C(=O)C1=O (single isomer, unassigned) [Example 7] | – | – | – | – | – | – | – | – | – | – | – | – | – | – | – | – | – | – | – | – | MIC [1, 23]: 12.5 µg/mL (≈ 18 µM)
CC1=C(C(=O)O)N2C(=O)[C@@H](NC(=O)[C@H](N)c3ccccc3)[C@H]2SC1 [CEX, sodium cephalexin, reference compound] | – | > 100 | – | – | – | > 100 | 3.13 | 3.13 | 1.56 | – | – | – | – | – | – | 6.25 | > 100 | > 100 | 3.13 | 25 | MIC ([1]; Pseudomonas aeruginosa): > 100 µg/mL; MIC [5]: > 100 µg/mL; MIC [6]: 50 µg/mL; MIC ([7]; Vibrio parahaemolyticus): 50 µg/mL; MIC ([15]; ENTERITIDIS): 3.13 µg/mL; MIC ([16]; Enterobacter): 100 µg/mL; MIC [18]: > 100 µg/mL; MIC ([20]; Staphylococcus aureus): 0.78 µg/mL; MIC ([21]; Vibrio parahaemolyticus): 6.25 µg/mL; MIC ([22]; Bacillus): 0.39 µg/mL
Cc1nnc(SCC2=C(C(=O)O)N3C(=O)[C@@H](NC(=O)Cn4cnnn4)[C@H]3SC2)s1 [CEZ, sodium cefazolin, reference compound] | > 100 | > 100 | > 100 | 2.5 | 12.5 | > 100 | 0.78 | 0.78 | 0.78 | 0.78 | 25 | > 100 | < 0.05 | – | < 0.05 | – | – | – | – | 3.13 | MIC [2, 24]: 0.78 µg/mL; MIC [3, 25]: > 100 µg/mL; MIC [8, 31]: > 100 µg/mL; MIC [17, 35]: 0.78 µg/mL; MIC ([21]; Vibrio parahaemolyticus): 1.56 µg/mL
CCN1CCN(C(=O)N[C@@H](C(=O)N[C@@H]2C(=O)N3[C@@H]2SC(C)(C)[C@@H]3C(=O)O)c2ccccc2)C(=O)C1=O [C, sodium 6-[D(-)-α-(4-ethyl-2,3-dioxopiperazin-1-yl-carbonylamino)phenylacetamido]penicillanate, reference compound] | – | – | 0.78 | 12.5 | 12.5 | 50 | 6.25 | 6.25 | 0.2 | < 0.05 | – | – | 0.78 | 25 | 0.39 | 6.25 | 3.13 | 3.13 | 3.13 | 3.13 | MIC ([1]; Pseudomonas aeruginosa): 6.25 µg/mL; MIC ([4]; Pseudomonas): 3.13 µg/mL; MIC ([16]; Enterobacter): 6.25 µg/mL; MIC [18]: 3.13 µg/mL
